Assays:
TRPV4 = assay: Whole-cell voltage-clamp, TRPV4(+) cells; format: cell-based; conditions: IA 200 μM
Procedure: TRPV3(+) response to IA is shown for reference. *, p<0.001. Error bars represent SEM, n=4-5.
(§1) Electrophysiological recording. Currents were recorded using whole-cell voltage-clamp. Pipettes were pulled from microcapillary glass (A-M Systems). A coverslip containing cells was transferred to a 300 μL chamber that was constantly perfused (1-2 mL/min) with external solution. Voltage protocols were generated and data were digitized and recorded using Pulse (HEKA Elektronik) software in conjunction with an Axopatch 200A amplifier (Axon Instruments), and the data analyzed using an in-house Visual Basic (Microsoft) analysis program.
(§2) The pipette solution contained (in mM): 121.5 Kgluconate, 10 HEPES, 17 KCl, 9 NaCl, 1 MgCl2, 0.2 EGTA, 2 MgATP, and 0.5 NaATP, pH 7.2. The external solution contained (in mM): 120 NaCl, 5 KCl, 1 MgCl2, 2 CaCl2, 10 Glucose and 20 HEPES, pH 7.4 with NaOH. The measured charge (pC) was defined as the charge elicited between -85 and -45 mV by a ramping voltage stimulus (−85 mV to +35 mV, 0.54 mV/msec; holding potential -55 mV). Currents were sampled at 5 kHz. Experimental and control cells were alternated whenever possible. Control values were obtained from adjacent cells with no detectable YFP fluorescence, presumed to be non-TRPV3-expressing.

IκBα degradation = IκBα degradation in TNFα-stimulated HeLa cells (Western blot); format: cell-based; conditions: HeLa cells pre-incubated 2 hrs, then TNFα 20 ng/ml for 20 minutes
Procedure: HeLa cells were pre-incubated with IA (FIG. 1A) or IN (FIG. 1B) at the indicated concentrations for 2 hrs prior to 20 minutes exposure to TNFα (20 ng/ml). At least three more experiments were repeated with highest indicated dose, resulting similarly.
IκBα Degradation. HeLa cells were pre-incubated with IA (50 μg/ml, dissolved in ethanol) for 2 hrs, and then stimulated for 20 minutes with TNFα (20 ng/ml, Emeryville, Calif., USA). After removing the slides from plates for immonostaining (see below), proteins were extracted from remaining cells in the plates. Proteins were extracted from cells in NP-40 lysis buffer. Total protein concentration was determined using the Bradford method. Lysates were then analyzed either by Western blotting (WB).
Western Blot (WB). Following separation by SDS-PAGE, proteins were blotted to a polyvinylidene difluoride (PVDF) membrane (Millipore). The membrane was blocked in 5% (w/v) milk powder and then incubated in TBST containing the primary antibody and 2% (w/v) milk powder. All phospho-specific antibodies were purchased from Cell signaling Inc. αIκBa, αp65 and αCOX2 antibodies from Santa Cruz Inc. (California, USA). After binding of an appropriate secondary antibody coupled to horseradish peroxidase, proteins were visualized by enhanced chemiluminiscence according to the instructions of the manufacturer (Amersham Lifescience).

COX-2 = COX-2 production in LPS-stimulated RAW 264.7 cells; format: cell-based, mice; conditions: 60 μM, P<0.001
Procedure: (A(1)) Representative Western Blot bands of Cox2 are shown with tubulin as reference. (A(2)) COX-2 levels were measured in RAW 264.7 cells incubated for 24 hrs. with LPS in the presence or in the absence of IA (60 μM/ml); **, p<0.001. (B) Murine peritoneal macrophages were activated by LPS (1 μg/ml for 24 hrs.) in absence of IA or in the presence of IA at indicated concentrations. NO generation was determined by measuring the nitrite accumulated in the supernatants; **, p<0.001. (C) Generation of ROS by RAW 264.7 macrophages (5×10^5 cells in 0.5 ml Hanks' balanced salt solution) was measured by chemiluminescence. Cells were pre-incubated with various doses of IA for 24 hrs before luminol (10 μl) and zymosan (30 μl) were added to the tubes; *, p<0.05; **, p<0.01; ***, p<0.001
COX-2 Production. RAW 264.7 cells were treated with subtoxic concentrations (confirmed by MTT colorimetric assay) of incensole acetate (10-20 μg/ml, dissolved in ethanol and further diluted in medium) and incubated with lipopolysaccharide (LPS, E. coli 1 μg/ml for 24 hs, Sigma, Israel) for 16-24 hrs. […]
Proteins were extracted from cells in NP-40 lysis buffer (50 mM Tris/HCl pH 7.5, 150 mM NaCl, 0.1% SDS, 1% NP-40, 10 mM EDTA, 1 mM phenylmethylsulfonylfluoride (PMSF), and 10 mM DTT). Total protein concentration was determined using the Bradford method and the lysates were analyzed by Western blotting.

mouse TRPV3-YFP = molecular target: T1, mouse TRPV3-YFP (Mus musculus, UniProt Q8K424); assay: Whole-cell voltage-clamp, TRPV3-YFP expressing HEK293 cells; format: cell-based; conditions: IA 200 μM; 2-APB 100 μM; charge −85 to −45 mV
T1 construct: expressed in transfected cells
T1 sequence (Q8K424 1-791): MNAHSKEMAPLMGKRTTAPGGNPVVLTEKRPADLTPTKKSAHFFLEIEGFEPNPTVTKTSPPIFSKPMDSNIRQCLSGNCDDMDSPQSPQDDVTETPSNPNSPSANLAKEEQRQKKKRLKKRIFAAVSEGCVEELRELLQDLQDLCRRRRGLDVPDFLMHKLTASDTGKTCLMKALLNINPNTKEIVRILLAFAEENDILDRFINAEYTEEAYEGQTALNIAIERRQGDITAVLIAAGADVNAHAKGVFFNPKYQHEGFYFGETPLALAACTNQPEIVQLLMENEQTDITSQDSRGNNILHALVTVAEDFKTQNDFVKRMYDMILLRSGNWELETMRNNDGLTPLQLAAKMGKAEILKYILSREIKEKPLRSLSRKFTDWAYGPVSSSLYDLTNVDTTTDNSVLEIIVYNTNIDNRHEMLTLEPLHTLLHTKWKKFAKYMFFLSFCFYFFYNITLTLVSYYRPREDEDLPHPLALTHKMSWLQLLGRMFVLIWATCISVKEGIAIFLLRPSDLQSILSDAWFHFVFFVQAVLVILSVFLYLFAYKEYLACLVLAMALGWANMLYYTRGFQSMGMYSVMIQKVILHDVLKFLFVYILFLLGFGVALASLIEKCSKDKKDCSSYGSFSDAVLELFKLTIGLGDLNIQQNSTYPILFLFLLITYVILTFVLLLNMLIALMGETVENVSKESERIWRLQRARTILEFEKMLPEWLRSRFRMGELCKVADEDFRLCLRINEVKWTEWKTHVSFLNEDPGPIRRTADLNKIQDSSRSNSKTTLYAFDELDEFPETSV
Procedure: as §1
as §2, with “The” for “The pipette solution contained (in mM): 121.5 Kgluconate, 10 HEPES, 17 KCl, 9 NaCl, 1 MgCl2, 0.2 EGTA, 2 MgATP, and 0.5 NaATP, pH 7.2. The”

With `CC(=O)OC1CC/C(C)=C/CC/C(C)=C/CC2(C(C)C)CCC1(C)O2` (stereo not shown) [IA, incensole acetate] as the molecule, how does the “current activation in TRPV4(+) cells” value (TRPV4) read?
The value was “does not activate currents”.

And the IκBα degradation (IκBα degradation)?
Its IκBα degradation is “inhibited IκBα degradation in a dose dependent manner”.

And the COX-2 production (COX-2)?
Its COX-2 production is “inhibited”.

And the “current activation in TRPV3(+) HEK293 cells” value (mouse TRPV3-YFP)?
Its value is “activation of currents”.

— patent publication US20100099756A1, “USES OF INCENSOLE, INCENSOLE ACETATE AND DERIVATIVES THEREOF” (YISSUM RESEARCH DEVELOPMENT COMPANY OF THE HEBREW …, priority 2006, published 2010)
